Assay results published in patent US20250177473A1, “PEPTIDE REGULATORS OF METABOLISM” (Metabico, Inc., priority 2022, published 2025).

Tests used:
[1] = system: TNF-α; assay: TNF-α mRNA expression in LPS-induced primary mouse fibroblasts; assay type: cell-based; conditions: LPS 0.5 μg/mL 24 h; DLSKEPSISRE 0.05 mg/mL or metformin 1 mM
Protocol: The study was carried out in primary mouse fibroblasts. Isolation of fibroblasts was carried out with techniques described earlier (See Example 1). Fibroblasts were cultured for 3 days. The following stressors were applied separately: bacterial lipopolysaccharides (LPS), high glucose in the incubation medium, and serum-free incubation medium.
LPS is a major outer surface membrane component that induces an inflammatory response in cells.
Isolation of mRNA, synthesis of the first strand of cDNA, and RT-PCR were performed with techniques described earlier (See Example 1). Expression levels of IRS2, TNF-α, IL-6, and GSK3p (WNT-pathway) were analyzed.
The study was carried out in primary mouse fibroblasts. Isolation of fibroblasts was carried out with techniques described earlier (See Example 1). Incubation of fibroblasts with 100 μM individual peptides and 0.5 μg/mL LPS was carried out for 24 hours. Each treatment group was represented in two biological replicates.
Isolation of mRNA, synthesis of the first strand of cDNA, and RT-PCR were performed with techniques described earlier (See Example 1). Expression levels of RPL27, TNF-α, IL-6, and IRS2 genes were analyzed.

[2] = system: C57BL/6 mice on a high-fat diet; assay: Glucose tolerance test in mice on high-fat diet (HFD), acute administration; assay type: in vivo, mouse; conditions: Metformin 250 mg/kg single p.o.
Protocol: A standard laboratory rodent pellet SNIFF RI/M-H V1534-30 (58% carbohydrates, 9% fat, 33% protein, 306 kcal/100 g) was given ad libitum to the control animals. For HFD groups, the high-fat feed was used. For 1 kg of feed, 610 g of ground SNIFF feed and 360 g of melted pork lard were taken, water (˜250 ml, 60-70° C.), 10 g of sodium chloride, 30 g of sodium glutamate were added. The mixture was brewed to a dough consistency, and food granules were formed. Then the granules were dried at 60-70° C. for 10-12 hours. The finished food for consumption was transferred to the animal-keeping area. The prepared food was stored at 4° C. for no more than 7 days. The approximate energy value of the HFD feed was 516 kcal/100 g (45% fat, 35% carbohydrates, 20% protein).
The metabolic syndrome was modeled by keeping animals on a HFD for 16 weeks. The control group was kept on a standard diet (STD) during this period. Animals had free access to feed and water located in the cage lid.
At stage 1 of the study, to replicate the metabolic syndrome, 25 mice were kept on a STD (group 1), 140 mice—on a HFD (groups 2-5). The animals' body weight was monitored weekly. By the end of the 16th week, mice with the maximum gain were selected among the animals kept on a HFD, and four groups of 25 animals were formed.
On the day of the experiment, animals from groups 3-5 were injected with the tested substances: one half of the group (12 or 13 animals) 2 hours before the experiment and the other half—12 hours. Group 1 and 2 (STD control and HFD control) were injected with saline (Table 5).
The administration volume was 10 ml/kg for drugs administered i.p., 6 μl/animal for i.n. administration and 5 ml/kg for drugs administered p.o.
The animals were deprived of food for 12 hours before the glucose tolerance test and euthanasia. Animals had free access to water.
The animals were deprived of food for 12 hours before the test. Baseline glucose level was measured at the end of fasting (0 min time point) in the blood drop taken from the tip of the tail by incision (with a needle) of the tail vein. The test substances were administered according to the treatment group. Half of the animals received drug injections 2 hours, and the other half—12 hours before the test. The glucose concentration in the blood was determined 15, 30, 60, 120 minutes after i.p. 40% glucose solution administration in a dose of […] with Satellite Express (Elta, Russia) test system.

[3] = system: C57BL/6 mice on a high-fat diet; assay: Blood serum glucose, HOMA-IR and TNF-α after chronic administration in HFD mice; assay type: in vivo, mouse; conditions: metformin 250 mg/kg p.o.
Protocol: Groups of 10 animals were formed from the existing groups from Stage 2, with similar mean body weight (Table 6). The animals' bodyweight was monitored three times a week, water, and feed consumption—weekly. After the last treatment, the animals were euthanized for necropsy and their blood collected. The internal organs were examined for the presence of macro damage and weighed. The adipose tissue surrounding the epididymis was evaluated as a marker of obesity in animals. For histological examination, samples of adipose tissue and liver tissue were fixed in 10% formalin solution for further histological analysis.
At the end of the study, the animals were euthanized. […]
Blood serum was analyzed for glucose concentration using the Randox GB reagent kit on an automatic biochemical analyzer Sapphire-400 (Tokyo Boeki LTD, Japan), following the manufacturer's instructions.
Insulin concentration in blood serum samples was measured by enzyme immunoassay using a standard commercial kit, following the manufacturer's instructions. […] Based on the obtained data on the concentration of insulin and glucose measured in animals before necropsy, the derived parameter of insulin resistance HOMA-IR was calculated using the formula: […]
The concentration of proinflammatory cytokine TNFa and IL1 was measured in blood serum samples by ELISA using standard commercial kits, following the manufacturer's instructions. […]

## CN(C)C(=N)N=C(N)N [Metformin]
[1]
  LPS-induced expression of TNF-α: similarly
[2]; 2 h post-treatment
  AUC of glucose in GTT: 1808 ± 131 mmol/L/min
[2]; 2 h post-treatment, 0 min (basal)
  glucose concentration in GTT: 7.2 ± 0.374 mmol/L
[2]; 2 h post-treatment, 60 min after glucose
  glucose concentration in GTT: 15.55 ± 1.46 mmol/L
[2]; 2 h post-treatment, 120 min after glucose
  glucose concentration in GTT: 10.08 ± 0.875 mmol/L
[2]; 12 h post-treatment
  AUC of glucose in GTT: 1857 ± 149 mmol/L/min
[2]; 12 h post-treatment, 0 min
  glucose concentration in GTT: 7.0 ± 0.7 mmol/L
[2]; 12 h post-treatment, 60 min after glucose
  glucose concentration in GTT: 15.7 ± 1.8 mmol/L
[2]; 12 h post-treatment, 120 min after glucose
  glucose concentration in GTT: 11.2 ± 1.4 mmol/L
[3]; 4 weeks, EPSI 5 mg/kg i.p. and i.n.
  glucose concentration in the blood vs HFD control group: decrease
[3]; four weeks, EPSI 5 mg/kg i.n.
  TNF-α concentration in blood serum vs HFD control: reduced
